Source: patent US7544679B2 (Hoffman-La Roche Inc., priority 2007, dated 2009)
Values after ≈ are worked out from the molar mass of the structure shown. Where two headings read alike, the source gives them in different places.

Key:
γ-secretase = molecular target: T1, γ-secretase (Homo sapiens, UniProt P49768); experiment: in vitro assay of γ-secretase activity (HEK293 membrane fraction, recombinant APP substrate, Abeta ELISA); format: biochemical; conditions: for Comments: potency (and THESA solubility) of the present example compared with the corresponding example from WO 2005/023772
T1 construct: HEK293 membrane fraction as a source of γ-secretase
From the text: Description of γ-secretase Assay
The activity of test compounds can be evaluated in assays which measure the proteolytic cleavage of suitable substrates by γ-secretase activity. These can be cellular assays where e.g., a substrate of the γ-secretase is fused in its cytoplasmic domain to a transcription factor. Cells are transfected with this fusion gene and a reporter gene, e.g., firefly luciferase, which expression is enhanced by the transcription factor. Cleavage of the fused substrate by γ-secretase will lead to expression of the reporter gene which can be monitored in appropriate assays. The γ-secretase activity can also be determined in cell-free in vitro assays where e.g., a cell lysate containing the γ-secretase complex is incubated with a suitable APP-derived substrate which is cleaved to the Abeta peptides. The amount of produced peptides can be determined with specific ELISA assays. Cell lines of neuronal origin secrete Abeta peptides which can be measured with the specific ELISA assay. Treatment with compounds which inhibit γ-secretase leads to a reduction of secreted Abeta thus providing a measure of inhibition.
The in vitro assay of γ-secretase activity uses a HEK293 membrane fraction as a source of γ-secretase and a recombinant APP substrate. Latter consist of the C-terminal 100 amino acids of human APP fused to a 6×Histidin tail for purification which is expressed in E.coli in a regulatable expression vector, e.g. pEt15. This recombinant protein corresponds to the truncated APP fragment which results after […] of the extracellular domain and which constitutes the γ-secretase substrate. The assay principle is described in Li Y M et al, PNAS 97(11), 6138-6143 (2000). Hek293 cells are mechanically disrupted and the microsomal fraction is isolated by differential centrifugation. The membranes are solubilized in detergent (0.25% CHAPSO) and incubated with the APP substrate. The Abeta peptides which are produced by γ-secretase cleavage of the substrate are detected by specific ELISA assays as described (Brockhaus M et al, Neuroreport 9(7), 1481-1486 (1998).

[1] = THESA assay for determination of the thermodynamic solubility; format: physicochemical; conditions: 22.5 °C, aqueous buffer, thermodynamic from solid, second figure of the cell
Method: In addition, the compounds of the present invention have been tested in a THESA assay for determination of the thermodynamic solubility.
Approximately 2 mg of each compound was added in excess to a 50 mM phosphate buffer, at room temperature (22.5±1° C.). Each sample was placed in a microanalysis tube, which was sonicated for 1 h and agitated for 2 h. All suspensions were left overnight. At the next day all pHs were measured with a pH-meter and the samples filtered with a micronic filterplate (MSGVN2250) to separate the solid material from the solution. Then, all solutions were analyzed by HPLC. The calibration line was established by different concentrations of the compound in DMSO. From this regression equation the solubility of the compound was determined.

[2] = 50 mM phosphate buffer, room temperature (22.5±1° C.), read-out: THESA (IC50/THESA, Example No. present appl.)
[3] = comparison compounds from WO 2005/023772, 50 mM phosphate buffer, room temperature, read-out: THESA (IC50/THESA, Corresponding Example from WO 2005/023772)

Row | Comments (γ-secretase) | solubility thermodynamic [1, 2] | solubility thermodynamic [1, 3] | Structure (SMILES) | further results
1 | Higher potency | – | – | CC(O)(C(=O)NCC(F)(F)C(F)(F)F)C(=O)N[C@@H]1C(=O)N(CC(F)(F)F)c2ccccc2-c2ccccc21 (mixture of isomers) [Example 12a] | –
2 | – | 19 µg/mL (≈ 40.3 µM) | – | C[C@@](O)(C(=O)NCC(F)(F)C(F)(F)F)C(=O)N[C@@H]1C(=O)Nc2ccccc2-c2ccccc21 [Example 1b, (R)-2-Hydroxy-2-methyl-N-((S)-6-oxo-6,7-dihydro-5H-dibenzo[b,d]azepin-7-yl)-N′-(2,2,3,3,3-pentafluoro-propyl)-malonamide] | –
3 | – | 14 µg/mL (≈ 29.7 µM) | – | C[C@](O)(C(=O)NCC(F)(F)C(F)(F)F)C(=O)N[C@@H]1C(=O)Nc2ccccc2-c2ccccc21 [Example 1c, (S)-2-Hydroxy-2-methyl-N-((S)-6-oxo-6,7-dihydro-5H-dibenzo[b,d]azepin-7-yl)-N′-(2,2,3,3,3-pentafluoro-propyl)-malonamide] | –
4 | Higher potency, higher solubility | 127 µg/mL (≈ 292 µM) | – | C[C@](O)(C(=O)NCCC(F)(F)F)C(=O)N[C@@H]1C(=O)Nc2ccccc2-c2ccccc21 [Example 2c, (S)-2-Hydroxy-2-methyl-N-((S)-6-oxo-6,7-dihydro-5H-dibenzo[b,d]azepin-7-yl)-N′-(3,3,3-trifluoro-propyl)-malonamide] | –
5 | Higher potency, higher solubility | 26 µg/mL (≈ 61.7 µM) | – | C[C@](O)(C(=O)NCC(F)(F)F)C(=O)N[C@@H]1C(=O)Nc2ccccc2-c2ccccc21 [Example 3b, (S)-2-Hydroxy-2-methyl-N-((S)-6-oxo-6,7-dihydro-5H-dibenzo[b,d]azepin-7-yl)-N′-(2,2,2-trifluoro-ethyl)-malonamide] | –
6 | Higher potency | 14 µg/mL (≈ 27.8 µM) | – | C[C@](O)(C(=O)NCC(F)(F)F)C(=O)N[C@@H]1C(=O)N(CC(F)(F)F)c2ccccc2-c2ccccc21 [Example 13b, (S)-2-Hydroxy-2-methyl-N-[(S)-6-oxo-5-(2,2,2-trifluoro-ethyl)-6,7-dihydro-5H-dibenzo[b,d]azepin-7-yl]-N′-(2,2,2-trifluoro-ethyl)-malonamide] | –
7 | – | – | < 1 µg/mL | C[C@@](F)(C(=O)NCC(F)(F)C(F)(F)F)C(=O)N[C@H]1C(=O)Nc2ccccc2-c2ccccc21 [reference compound] | –

Second part, the compound before the results:

Row | Structure (SMILES) | Comments (γ-secretase) | solubility thermodynamic [1, 2] | solubility thermodynamic [1, 3] | further results
8 | CCCC(O)(C(=O)NCCC(F)(F)F)C(=O)N[C@@H]1C(=O)Nc2ccccc2-c2ccccc21 (mixture of isomers) [Example 6a] | Higher potency | – | – | –
9 | CCCC(O)(C(N)=O)C(=O)N(CCC(F)(F)F)[C@@H]1C(=O)Nc2ccccc2-c2ccccc21 (single isomer, unassigned) [Example 6g, (R or S)-2-Hydroxy-N-((S)-6-oxo-6,7-dihydro-5H-dibenzo[b,d]azepin-7-yl)-2-propyl-N-(3,3,3-trifluoro-propyl)-malonamide] | Higher potency | – | – | –
10 | C[C@](F)(C(=O)NCC(F)(F)C(F)(F)F)C(=O)N[C@H]1C(=O)Nc2ccccc2-c2ccccc21 [reference compound] | – | – | < 1 µg/mL | –
11 | CC(C)(C(=O)NCCC(F)(F)F)C(=O)N[C@H]1C(=O)Nc2ccccc2-c2ccccc21 [reference compound] | – | – | < 1 µg/mL | –
12 | CC(C)(C(=O)NCC(F)(F)F)C(=O)N[C@H]1C(=O)Nc2ccccc2-c2ccccc21 [reference compound] | – | – | 16 µg/mL (≈ 38.1 µM) | –
13 | CCCC(C)(C(=O)NCCC(F)(F)F)C(=O)N[C@H]1C(=O)Nc2ccccc2-c2ccccc21 (stereo partly shown) [reference compound] | – | – | – | IC50 (IC50/THESA, Corresponding Example from WO 2005/023772) (γ-secretase; first figure of the cell, comparison compounds from WO 2005/023772): nearly inactive/—
